Laboratory results from patent publication US20250163104A1, “MACROCYCLIC IMMUNOMODULATORS” (priority 2021, published 2025).
Where a SMILES comes first, the peptide text is derived from it. Bridges are numbered along the chain shown (N, C = ends). [ ]: non-standard residue; d: D form. The star is where a group is joined. Phe(4-COOH) = N[C@@H](Cc1ccc(C(=O)O)cc1)C(=O)O; Bip = N[C@@H](Cc1ccc(-c2ccccc2)cc1)C(=O)O; Phe(3-F) = N[C@@H](Cc1cccc(F)c1)C(=O)O; Cit = NC(=O)NCCC[C@H](N)C(=O)O; Carboxymethyl = O=C(O)C*; Orn = NCCC[C@H](N)C(=O)O; Dab = NCC[C@H](N)C(=O)O; Dap = NC[C@H](N)C(=O)O

Target: T1, human PD-1 / PD-L1-Ig binding on Jurkat cell line over-expressing human PD-1 (Jurkat-PD-1) (Homo sapiens, UniProt Q15116)
T1 construct: expressed in transfected cells; host or cells: Jurkat
T1 sequence (Q15116 25-288): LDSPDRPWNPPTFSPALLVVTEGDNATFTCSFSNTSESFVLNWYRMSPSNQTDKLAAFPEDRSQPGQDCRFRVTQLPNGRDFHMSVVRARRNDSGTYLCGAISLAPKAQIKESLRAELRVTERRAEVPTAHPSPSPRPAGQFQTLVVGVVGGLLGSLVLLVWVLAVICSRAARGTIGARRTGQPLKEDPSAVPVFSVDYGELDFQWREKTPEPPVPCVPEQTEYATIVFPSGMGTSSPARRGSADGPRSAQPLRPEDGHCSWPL
Experiment: Jurkat-PD-1 Cell Binding High-Content Screening Assay (CBA)
Format: cell-based
Settings: Jurkat-PD-1 cells, PE-labeled PD-L1-Ig 20 nM final; read-out: Jurkat HPD1_PDL1 IC50
Summary of the method: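 PE-PD-L1-Ig 20 nM final; cells in DMEM/10% FCS; cpd pre-incubation 2 h, 37° C; ligand 1 h; PFA fix + Hoechst 33342; high-content imaging read-out.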

Row | IC50 | SMILES
1 | 20.9 nM | CC(C)C[C@H]1NC(=O)[C@H](CCCN)NC(=O)[C@H](CCCNC(N)=O)NC(=O)[C@H](Cc2ccc(-c3ccccc3)cc2)NC(=O)[C@H](C(C)C)NC(=O)[C@H](Cc2c[nH]c3ccccc23)NC(=O)[C@H](CC(=O)O)NC(=O)[C@H](Cc2ccc(C(=O)O)cc2)NC(=O)[C@H](Cc2ccc(OCC(=O)O)cc2)NC(=O)CSC[C@@H](C(=O)N[C@@H](C)C(N)=O)NC(=O)[C@H]([C@@H](C)O)NC(=O)[C@H](C(C)C)NC(=O)[C@H](Cc2cccc(F)c2)NC(=O)[C@H](CCN)NC1=O [Compound 1675] ({CH2CO}-Y(Carboxymethyl)[Phe(4-COOH)]DWV[Bip][Cit][Orn][dL][Dab][Phe(3-F)]VTCA-NH2; thioether N-14)
2 | 22.2 nM | CC(C)C[C@H]1NC(=O)[C@H](CCCN)NC(=O)[C@H](CCCNC(N)=O)NC(=O)[C@H](Cc2ccc(-c3ccccc3)cc2)NC(=O)[C@H](C(C)C)NC(=O)[C@H](Cc2c[nH]c3ccccc23)NC(=O)[C@H](CC(=O)O)NC(=O)[C@H](Cc2ccc(OCC(=O)O)cc2)NC(=O)[C@H](Cc2ccc(OCC(=O)O)cc2)NC(=O)CSC[C@@H](C(=O)N[C@@H](C)C(N)=O)NC(=O)[C@H]([C@@H](C)O)NC(=O)[C@H](C(C)C)NC(=O)[C@H](Cc2cccc(F)c2)NC(=O)[C@H](CCN)NC1=O [Compound 1676] ({CH2CO}-Y(Carboxymethyl)Y(Carboxymethyl)DWV[Bip][Cit][Orn][dL][Dab][Phe(3-F)]VTCA-NH2; thioether N-14)
3 | 21.1 nM | CC(C)C[C@H]1NC(=O)[C@H](CCCN)NC(=O)[C@H](CCC(=O)O)NC(=O)[C@H](Cc2ccc(-c3ccccc3)cc2)NC(=O)[C@H](C(C)C)NC(=O)[C@H](Cc2c[nH]c3ccccc23)NC(=O)[C@H](CC(=O)O)NC(=O)[C@H](Cc2ccc(OCC(=O)O)cc2)NC(=O)[C@H](CN)NC(=O)CSC[C@@H](C(=O)N[C@@H](C)C(N)=O)NC(=O)[C@H]([C@@H](C)O)NC(=O)[C@H](C(C)C)NC(=O)[C@H](Cc2cccc(F)c2)NC(=O)[C@H](CCN)NC1=O [Compound 1677] ({CH2CO}-[Dap]Y(Carboxymethyl)DWV[Bip]E[Orn][dL][Dab][Phe(3-F)]VTCA-NH2; thioether N-14)
4 | 52 nM | CC[C@H](C)[C@@H]1NC(=O)[C@H](Cc2ccc(-c3ccccc3)cc2)NC(=O)[C@H](C(C)C)NC(=O)[C@H](Cc2c[nH]c3ccccc23)NC(=O)[C@H](CC(=O)O)NC(=O)[C@H](Cc2ccc(OCC(=O)O)cc2)NC(=O)[C@H](CN)NC(=O)CSC[C@@H](C(=O)N[C@@H](C)C(N)=O)NC(=O)[C@H]([C@@H](C)O)NC(=O)[C@H](C(C)C)NC(=O)[C@H](Cc2ccc(O)cc2)NC(=O)[C@H](CCN)NC(=O)[C@@H](CC(C)C)NC(=O)[C@H](CCCN)NC1=O [Compound 1678] ({CH2CO}-[Dap]Y(Carboxymethyl)DWV[Bip]I[Orn][dL][Dab]YVTCA-NH2; thioether N-14)
5 | 92.2 nM | CC[C@H](C)[C@@H]1NC(=O)[C@H](Cc2ccc(-c3ccccc3)cc2)NC(=O)[C@H](C(C)C)NC(=O)[C@H](Cc2c[nH]c3ccccc23)NC(=O)[C@H](CC(=O)O)NC(=O)[C@H](Cc2ccc(C(=O)O)cc2)NC(=O)[C@H](Cc2ccc(OCC(=O)O)cc2)NC(=O)CSC[C@@H](C(=O)N[C@@H](C)C(N)=O)NC(=O)[C@H]([C@@H](C)O)NC(=O)[C@H](C(C)C)NC(=O)[C@H](Cc2ccc(O)cc2)NC(=O)[C@H](CCN)NC(=O)[C@@H](CC(C)C)NC(=O)[C@H](CCCN)NC1=O [Compound 1679] ({CH2CO}-Y(Carboxymethyl)[Phe(4-COOH)]DWV[Bip]I[Orn][dL][Dab]YVTCA-NH2; thioether N-14)
6 | 71.7 nM | CC[C@H](C)[C@@H]1NC(=O)[C@H](Cc2ccc(-c3ccccc3)cc2)NC(=O)[C@H](C(C)C)NC(=O)[C@H](Cc2c[nH]c3ccccc23)NC(=O)[C@H](CC(=O)O)NC(=O)[C@H](Cc2ccc(OCC(=O)O)cc2)NC(=O)[C@H](Cc2ccc(OCC(=O)O)cc2)NC(=O)CSC[C@@H](C(=O)N[C@@H](C)C(N)=O)NC(=O)[C@H]([C@@H](C)O)NC(=O)[C@H](C(C)C)NC(=O)[C@H](Cc2ccc(O)cc2)NC(=O)[C@H](CCN)NC(=O)[C@@H](CC(C)C)NC(=O)[C@H](CCCN)NC1=O [Compound 1680] ({CH2CO}-Y(Carboxymethyl)Y(Carboxymethyl)DWV[Bip]I[Orn][dL][Dab]YVTCA-NH2; thioether N-14)
7 | 48.9 nM | CC(C)C[C@H]1NC(=O)[C@H](CCCN)NC(=O)[C@H](C(C)C)NC(=O)[C@H](Cc2ccc(-c3ccccc3)cc2)NC(=O)[C@H](C(C)C)NC(=O)[C@H](Cc2c[nH]c3ccccc23)NC(=O)[C@H](CC(=O)O)NC(=O)[C@H](Cc2ccc(OCC(=O)O)cc2)NC(=O)[C@H](CN)NC(=O)CSC[C@@H](C(=O)N[C@@H](C)C(N)=O)NC(=O)[C@H]([C@@H](C)O)NC(=O)[C@H](C(C)C)NC(=O)[C@H](Cc2ccc(O)cc2)NC(=O)[C@H](CCN)NC1=O [Compound 1681] ({CH2CO}-[Dap]Y(Carboxymethyl)DWV[Bip]V[Orn][dL][Dab]YVTCA-NH2; thioether N-14)
8 | 66 nM | CC(C)C[C@H]1NC(=O)[C@H](CCCN)NC(=O)[C@H](C(C)C)NC(=O)[C@H](Cc2ccc(-c3ccccc3)cc2)NC(=O)[C@H](C(C)C)NC(=O)[C@H](Cc2c[nH]c3ccccc23)NC(=O)[C@H](CC(=O)O)NC(=O)[C@H](Cc2ccc(C(=O)O)cc2)NC(=O)[C@H](Cc2ccc(OCC(=O)O)cc2)NC(=O)CSC[C@@H](C(=O)N[C@@H](C)C(N)=O)NC(=O)[C@H]([C@@H](C)O)NC(=O)[C@H](C(C)C)NC(=O)[C@H](Cc2ccc(O)cc2)NC(=O)[C@H](CCN)NC1=O [Compound 1682] ({CH2CO}-Y(Carboxymethyl)[Phe(4-COOH)]DWV[Bip]V[Orn][dL][Dab]YVTCA-NH2; thioether N-14)
9 | 104 nM | CC(C)C[C@H]1NC(=O)[C@H](CCCN)NC(=O)[C@H](C(C)C)NC(=O)[C@H](Cc2ccc(-c3ccccc3)cc2)NC(=O)[C@H](C(C)C)NC(=O)[C@H](Cc2c[nH]c3ccccc23)NC(=O)[C@H](CC(=O)O)NC(=O)[C@H](Cc2ccc(OCC(=O)O)cc2)NC(=O)[C@H](Cc2ccc(OCC(=O)O)cc2)NC(=O)CSC[C@@H](C(=O)N[C@@H](C)C(N)=O)NC(=O)[C@H]([C@@H](C)O)NC(=O)[C@H](C(C)C)NC(=O)[C@H](Cc2ccc(O)cc2)NC(=O)[C@H](CCN)NC1=O [Compound 1683] ({CH2CO}-Y(Carboxymethyl)Y(Carboxymethyl)DWV[Bip]V[Orn][dL][Dab]YVTCA-NH2; thioether N-14)
10 | 120 nM | CC(C)C[C@H]1NC(=O)[C@H](CCCN)NC(=O)[C@H](CCCNC(N)=O)NC(=O)[C@H](Cc2ccc(-c3ccccc3)cc2)NC(=O)[C@H](C(C)C)NC(=O)[C@H](Cc2c[nH]c3ccccc23)NC(=O)[C@H](CC(=O)O)NC(=O)[C@H](Cc2ccc(C(=O)O)cc2)NC(=O)[C@H](Cc2ccc(OCC(=O)O)cc2)NC(=O)CSC[C@@H](C(=O)N[C@@H](C)C(N)=O)NC(=O)[C@H]([C@@H](C)O)NC(=O)[C@H](C(C)C)NC(=O)[C@H](Cc2ccc(O)cc2)NC(=O)[C@H](CCN)NC1=O [Compound 1684] ({CH2CO}-Y(Carboxymethyl)[Phe(4-COOH)]DWV[Bip][Cit][Orn][dL][Dab]YVTCA-NH2; thioether N-14)
11 | 175 nM | CC(C)C[C@H]1NC(=O)[C@H](CCCN)NC(=O)[C@H](CCCNC(N)=O)NC(=O)[C@H](Cc2ccc(-c3ccccc3)cc2)NC(=O)[C@H](C(C)C)NC(=O)[C@H](Cc2c[nH]c3ccccc23)NC(=O)[C@H](CC(=O)O)NC(=O)[C@H](Cc2ccc(OCC(=O)O)cc2)NC(=O)[C@H](Cc2ccc(OCC(=O)O)cc2)NC(=O)CSC[C@@H](C(=O)N[C@@H](C)C(N)=O)NC(=O)[C@H]([C@@H](C)O)NC(=O)[C@H](C(C)C)NC(=O)[C@H](Cc2ccc(O)cc2)NC(=O)[C@H](CCN)NC1=O [Compound 1685] ({CH2CO}-Y(Carboxymethyl)Y(Carboxymethyl)DWV[Bip][Cit][Orn][dL][Dab]YVTCA-NH2; thioether N-14)
12 | 215 nM | CC(C)C[C@H]1NC(=O)[C@H](CCCN)NC(=O)[C@H](CCC(=O)O)NC(=O)[C@H](Cc2ccc(-c3ccccc3)cc2)NC(=O)[C@H](C(C)C)NC(=O)[C@H](Cc2c[nH]c3ccccc23)NC(=O)[C@H](CC(=O)O)NC(=O)[C@H](Cc2ccc(OCC(=O)O)cc2)NC(=O)[C@H](CN)NC(=O)CSC[C@@H](C(=O)N[C@@H](C)C(N)=O)NC(=O)[C@H]([C@@H](C)O)NC(=O)[C@H](C(C)C)NC(=O)[C@H](Cc2ccc(O)cc2)NC(=O)[C@H](CCN)NC1=O [Compound 1686] ({CH2CO}-[Dap]Y(Carboxymethyl)DWV[Bip]E[Orn][dL][Dab]YVTCA-NH2; thioether N-14)
13 | 368 nM | CC(C)C[C@H]1NC(=O)[C@H](CCCN)NC(=O)[C@H](CCC(=O)O)NC(=O)[C@H](Cc2ccc(-c3ccccc3)cc2)NC(=O)[C@H](C(C)C)NC(=O)[C@H](Cc2c[nH]c3ccccc23)NC(=O)[C@H](CC(=O)O)NC(=O)[C@H](Cc2ccc(C(=O)O)cc2)NC(=O)[C@H](Cc2ccc(OCC(=O)O)cc2)NC(=O)CSC[C@@H](C(=O)N[C@@H](C)C(N)=O)NC(=O)[C@H]([C@@H](C)O)NC(=O)[C@H](C(C)C)NC(=O)[C@H](Cc2ccc(O)cc2)NC(=O)[C@H](CCN)NC1=O [Compound 1687] ({CH2CO}-Y(Carboxymethyl)[Phe(4-COOH)]DWV[Bip]E[Orn][dL][Dab]YVTCA-NH2; thioether N-14)
14 | 633 nM | CC(C)C[C@H]1NC(=O)[C@H](CCCN)NC(=O)[C@H](CCC(=O)O)NC(=O)[C@H](Cc2ccc(-c3ccccc3)cc2)NC(=O)[C@H](C(C)C)NC(=O)[C@H](Cc2c[nH]c3ccccc23)NC(=O)[C@H](CC(=O)O)NC(=O)[C@H](Cc2ccc(OCC(=O)O)cc2)NC(=O)[C@H](Cc2ccc(OCC(=O)O)cc2)NC(=O)CSC[C@@H](C(=O)N[C@@H](C)C(N)=O)NC(=O)[C@H]([C@@H](C)O)NC(=O)[C@H](C(C)C)NC(=O)[C@H](Cc2ccc(O)cc2)NC(=O)[C@H](CCN)NC1=O [Compound 1688] ({CH2CO}-Y(Carboxymethyl)Y(Carboxymethyl)DWV[Bip]E[Orn][dL][Dab]YVTCA-NH2; thioether N-14)
